This passage reports Ki results from ChEMBL document CHEMBL3639359, “Compounds as cannabinoid receptor ligands” (2014).

The structures appear in SMILES notation.

Assay [1] has as its target T1, Cannabinoid receptor 2 (Rattus norvegicus, UniProt Q9QZN9).
T1 sequence (Q9QZN9 whole entry): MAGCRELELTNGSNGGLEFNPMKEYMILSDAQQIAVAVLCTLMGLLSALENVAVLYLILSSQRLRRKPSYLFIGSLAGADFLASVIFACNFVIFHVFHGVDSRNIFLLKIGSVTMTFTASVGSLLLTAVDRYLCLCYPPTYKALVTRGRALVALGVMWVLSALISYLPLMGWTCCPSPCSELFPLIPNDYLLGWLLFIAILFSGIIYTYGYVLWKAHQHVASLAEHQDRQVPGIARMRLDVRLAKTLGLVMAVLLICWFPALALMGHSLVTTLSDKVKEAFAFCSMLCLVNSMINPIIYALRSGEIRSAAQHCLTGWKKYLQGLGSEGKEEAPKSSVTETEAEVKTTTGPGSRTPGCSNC
Kind of assay: Radioligand Binding Assay: HEK293 cells stably expressing rat CB2 receptors were grown until a confluent monolayer was formed. Briefly, the cells were harvested and homogenized in TE buffer (50 mM Tris-HCl, 1 mM MgCl2, and 1 mM EDTA) using a polytron for 2x 10 second bursts in the presence of protease inhibitors, followed by centrifugation at 45,000x g for 20 minutes. The final membrane pellet was re-homogenized in storage buffer (50 mM Tris-HCl, 1 mM MgCl2, and 1 mM EDTA and 10% sucrose) and frozen at -78 C. until used. Saturation binding reactions were initiated by the addition of membrane preparation (protein concentration of 20 ug/well for rat CB2) into wells of a deep well plate containing [3H]CP 55,940 (120 Ci/mmol, a nonselective CB agonist commercially available from Tocris) in assay buffer (50 mM Tris, 2.5 mM EDTA, 5 mM MgCl2, and 0.5 mg/mL fatty acid free BSA, pH 7.4). After 45 min incubation at 30u C., binding reaction was terminated by the addition of 300 ul/well of cold assay buffer. It counts as cell membranes.

The target in assay [2] is Cannabinoid receptor 2 (Homo sapiens, UniProt P34972). The assay can be described thus: Radioligand Binding Assay: HEK293 cells stably expressing human CB2 receptors were grown until a confluent monolayer was formed. Briefly, the cells were harvested and homogenized in TE buffer (50 mM Tris-HCl, 1 mM MgCl2, and 1 mM EDTA) using a polytron for 2x 10 second bursts in the presence of protease inhibitors, followed by centrifugation at 45,000xg for 20 minutes. The final membrane pellet was re-homogenized in storage buffer (50 mM Tris-HCl, 1 mM MgCl2, and 1 mM EDTA and 10% sucrose) and frozen at -78 C. until used. Saturation binding reactions were initiated by the addition of membrane preparation (protein concentration of 5 ug/well for human CB2) into wells of a deep well plate containing [3H]CP 55,940 (120 Ci/mmol, a nonselective CB agonist commercially available from Tocris) in assay buffer (50 mM Tris, 2.5 mM EDTA, 5 mM MgCl2, and 0.5 mg/mL fatty acid free BSA, pH 7.4). After 90 min incubation at 30 C., binding reaction was terminated by the addition of 300 uL/well of cold assay buffer. It counts as cell membranes.
Cannabinoid receptor 2 (Homo sapiens, UniProt P34972), sequence (P34972 whole entry): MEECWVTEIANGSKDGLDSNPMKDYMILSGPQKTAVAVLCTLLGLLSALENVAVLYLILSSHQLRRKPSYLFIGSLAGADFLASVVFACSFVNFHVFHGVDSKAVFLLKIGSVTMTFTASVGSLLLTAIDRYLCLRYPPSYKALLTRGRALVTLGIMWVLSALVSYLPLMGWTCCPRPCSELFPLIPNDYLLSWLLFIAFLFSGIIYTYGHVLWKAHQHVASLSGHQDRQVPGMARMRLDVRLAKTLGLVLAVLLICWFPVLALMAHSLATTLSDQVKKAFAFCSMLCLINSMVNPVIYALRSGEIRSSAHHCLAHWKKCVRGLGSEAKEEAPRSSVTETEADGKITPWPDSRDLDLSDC

`CCCCn1nc(C(C)(C)C)s/c1=N\C(=O)c1cc(C(F)(F)F)ccc1ON=C(C)C`: the inhibition constant Ki (as a rule, the dissociation constant of the complex between target and ligand, obtained from inhibition or displacement) on Cannabinoid receptor 2 [1] turned out to be 5.2 nM; on Cannabinoid receptor 2 [2] it was 12 nM.
